The source of these data is US20100075993A1, “SMALL MOLECULE INHIBITORS AGAINST WEST NILE VIRUS REPLICATION” (DREXEL UNIVERSITY, priority 2005, published 2010).

Some results are limits rather than exact numbers.

One data set deals with WNV replicon. Kind of data set: WNV replicon luciferase assay in BHK 26.5 cells (HTS, re-test, IC50). In kind it is cell-based, West Nile virus. The conditions noted are these: for IC50: West Nile virus, 24 h; for Fold decrease (HTS) / Fold decrease (Re-test): luciferase activity; for Fold decrease (HTS): 10 μM compound, 24 hours, BHK 26.5 cells; for Fold decrease (Re-test): re-checked at a single 10 μM concentration. On the procedure:
Ten micromolar concentrations of a selected compound were incubated with BHK 26.5 cells expressing luciferase whose activity is dependent upon WNV replicon replication (FIG. 1A). Primary “hits” were defined by the ability to reduce the amount of luciferase enzyme activity by more than 50%, compared to controls.
To quantify and rank the activity of the 23 remaining compound “hits”, a serial dilution of each compound was incubated with WNV replicon cells to determine the concentration that inhibits 50% of the luciferase readout (IC50s). […] A number of compounds had significant effect only at the highest, 10 μM concentration. However, several compounds had IC50s between 2 and 5 (Table 3), which is very reasonable for primary HTS hits from a compound library. Only a few compounds could cause 90% inhibition in the replicon cells at the concentrations tested.
(§1) Replicon-harboring cells were plated 96-well plates at 10,000 cells per well in MEM plus 3% FBS. 24 hours after plating, compounds were added to the wells by a Robotic liquid handler (Biomek NX) to a final concentration of 10 μM and 1% DMSO. For each 96 well plate, A1 to A8 were left open, H1 to H4 contained 1% DMSO, H5-H8 contained Mycophenolic acid (Sigma-Aldrich, St. Louis, Mo.), which was included as positive controls. After 24 hours of treatment, the media were removed and the luciferase activity expressed in the replicon cells was quantified. When cyto-toxicity was measured, duplicate 96 well plates were plated with BHK 26.5 replicon cells. One plate was used for luciferase assay and one plate was used for measuring toxicity using MTT assay.
Luciferase assay was performed by using the STEADY GLO reagent (Promega Corp. Madison, Wis.) according to the manufacturer's recommendation with slight modifications. Briefly, the culture media from the 96 wells were removed by dumping on paper towels.
100 μl of a 1:1 mixture of luciferase regent and culture media were added to the plate. After 5-minute incubation, the luminescence was read on a TOPCOUNT (PerkinElmer, Wellesley, Mass.).
(A replicon is a self-replicating genome or part of one, used to study replication in cells.)

Another data set concerns BHK 26.5 replicon cells. Kind of data set: MTT toxicity assay on BHK 26.5 replicon cells. In kind it is cell-based. The conditions noted are these: MTT assay.
Description: The HTS strategy follows the flowchart outlined in FIG. 2. 35,000 compounds were screened from a chemical library described below, using a cutoff of 50% reduction in luminescence readout as the criteria for further study. Upon completion of the screen, approximately 1100 compounds were selected, making the hit rate of 3%. This is considerably higher than expected, implying many false positive and/or cytotoxic compounds. Nevertheless, the compounds were picked out from the “daughter” plates and re-checked at a single 10 μM concentration. In addition, a duplicate 96 well plates were also plated and the toxicity of the compounds was determined in an MTT assay. Upon completion of these assays, most compounds were disqualified as either false positives or being toxicity to cells. As a result, only a small number of compounds were further analyzed directly from the “mother” plate stock. After IC50 determination and secondary assay to rule out luciferase inhibitors, 23 “hits” were identified.
as §1
Compound toxicity was determined by MTT assay. For the MTT assay, the cell medium was removed and the monolayers were incubated with 100 μl/well of 0.5 mg/ml MTT for 6 h at 37° C. The MTT solution was then aspirated and 100 μl/well of the 10% SDS (in 0.01N HCl) was added, followed by spectrophotometric quantitation (570 nm) of the insoluble MIT reaction product.

A further data set deals with WNV. Kind of data set: WNV yield reduction assay (live virus) on BHK cells. The conditions noted are these: live WNV. It counts as cell-based, West Nile virus. The method, then:
The antiviral assay for the 309-F6 compounds was conducted on BHK cells. The virus produced in the presence of 1% DMSO or various concentrations of compounds was tittered on Vero cells. The amount of virus relative to the 1% DMSO control was plotted on the y-axis; the concentration of the compound 309F6 is shown in μM on the x-axis. Data from two independently treated wells (Test 1 and Test 2) are shown.
To measure activity against live WNV, BHK cells were plated in 96-well plates at a concentration of 12,000 cells/well. One day later the cells were infected with WNV for 1 h at an MOI of 0.05. The cells were then washed once and re-fed with fresh DMEM containing dilutions of the test compound. Plates were then incubated at 37° C. for 48 h, the supernatant collected and the WNV produced titered. For virus titration, Vero cells were plated in 96-well plates at 8000 cells/well and incubated overnight. The Vero cell monolayer were then infected for 1 h with various dilutions of the WNV supernatant, overlaid with media containing 0.6% tragacanth (ICN, CA) and incubated at 37° C. for 48 h. The culture media was then aspirated; the plate was rinsed, air-dried, and fixed with 50 μl/well acetone/methanol (50:50). Viral foci were detected for enumeration by immunostaining as described previously (15).

What is called IC50 is the concentration at which inhibition is half-maximal. High values mean a need for much substance, low ones inhibition by little substance. With `CCOC(=O)c1cnc2ccc(OCC)cc2c1NCc1ccccc1` [Compound 63-C10, 4-Benzylamino-6-ethoxy-quinoline-3-carboxylic acid ethyl ester], in the data set with WNV replicon, the IC50 was determined as 5 µM and the “Fold decrease (HTS)” value was 3.5 Fold. The “Toxicity (uM)*” value in the data set on BHK 26.5 replicon cells is >20 µM.
For `NC(=O)CCS(=O)(=O)c1ccc(Cl)cc1` [Compound 2-H7, 3-(4-Chloro-benzenesulfonyl)-propionamide], in the data set on WNV replicon, the IC50 was 2.5 µM, the “Fold decrease (HTS)” value is recorded as 4.5 Fold and the “Fold decrease (Re-test)” value is recorded as 2.5 Fold. Moreover, the “Toxicity (uM)*” value in the data set on BHK 26.5 replicon cells was >20 µM.
On to `Cc1ccc(S(=O)(=O)N2Cc3ccccc3CC2C(=O)Nc2ccc(Cl)cc2)cc1` (stereo not drawn) [Compound 42-E5, 2-(Toluene-4-sulfonyl)-1,2,3,4-tetrahydro-isoquinoline-3-carboxylic acid(4-chloro-phenyl)-amide], for which, in the data set on WNV replicon, the concentration for half-maximal inhibition (IC50) is 7.5 µM, the “Fold decrease (HTS)” value was 7 Fold and the “Fold decrease (Re-test)” value turned out to be 1.7 Fold. Besides, the “Toxicity (uM)*” value with BHK 26.5 replicon cells was >10 µM.
Turning to `CCC(C)NC(=O)c1cnn2c(O)c(Cc3ccccc3Cl)c(C)nc12` (stereo not drawn) [Compound 275-D9, 6-(2-Chloro-benzyl)-7-hydroxy-5-methyl-pyrazolo[1,5-a]pyrimidine-3-carboxylic acid sec-butylamide], in the data set on WNV replicon, the IC50 amounted to 7.5 µM, the “Fold decrease (HTS)” value is 10 Fold and the “Fold decrease (Re-test)” value came to 2.9 Fold. The “Toxicity (uM)*” value with BHK 26.5 replicon cells is >10 µM. Besides, the “activity in the WNV infection assay” value with WNV is “no detectable activity”.
Take `O=C1Nc2ccc(S(=O)(=O)Nc3cc(Cl)ccc3Cl)c3cccc1c23` [Compound 24-C10, 2-Oxo-1,2-dihydro-benzo[cd]indole-6-sulfonic acid (2,5-dichloro-phenyl)-amide]: in the data set with WNV replicon, the IC50 is 10 µM, the “Fold decrease (HTS)” value is 2.5 Fold and the “Fold decrease (Re-test)” value is on record as 1.8 Fold. Also, the “Toxicity (uM)*” value in the data set with BHK 26.5 replicon cells was >10 µM.
On to `Cc1cc(C)c2nc(NC3=NC(c4ccccc4)CC(=O)N3)nc(C)c2c1` (stereo not drawn) [Compound 50-A8, 6-Phenyl-2-(4,6,8-trimethyl-quinazolin-2-ylamino)-5,6-dihydro-3H-pyrimidin-4-one], for which, in the data set with WNV replicon, half-maximal inhibition (IC50) required 5 µM, the “Fold decrease (HTS)” value was 4.5 Fold and the “Fold decrease (Re-test)” value is reported as 2.3 Fold. Moreover, the “Toxicity (uM)*” value in the data set on BHK 26.5 replicon cells is >10 µM.
Consider `COc1ccc(-n2nc3c(c2NC(=O)c2ccc(OC(C)C)cc2)CSC3)cc1` [Compound 253-F8, 4-Isopropoxy-N-[2-(4-methoxy-phenyl)-2,6-dihydro-4H-thieno[3,4-c]pyrazol-3-yl]-benzamide], for which, in the data set with WNV replicon, 10 µM corresponded to half-maximal inhibition (IC50), the “Fold decrease (HTS)” value is 2.5 Fold and the “Fold decrease (Re-test)” value came out at 2 Fold. Also, in the data set with BHK 26.5 replicon cells, the “Toxicity (uM)*” value was >30 µM.
As to `CCc1cccc(NC(=O)C(Cc2ccccc2)NS(=O)(=O)c2cccs2)c1` (stereo not drawn) [Compound 207-E5, N-(3-Ethyl-phenyl)-3-phenyl-2-(thiophene-2-sulfonylamino)-propionamide], in the data set on WNV replicon, the IC50 amounted to 10 µM, the “Fold decrease (HTS)” value came to 5 Fold and the “Fold decrease (Re-test)” value is given as 2 Fold. Also, the “Toxicity (uM)*” value in the data set on BHK 26.5 replicon cells was >10 µM.
The like results for `O=C(Nc1c2c(nn1-c1ccc(F)cc1)CSC2)c1ccc2c(c1)OCO2` [Compound 253-F11, Benzo[1,3]dioxole-5-carboxylic acid [2-(4-fluoro-phenyl)-2,6-dihydro-4H-thieno[3,4-c]pyrazol-3-yl]-amide] were, in that order, 10 µM, 3 Fold, 2 Fold and >30 µM.
The like results for `COc1cc(OC)cc(C(=O)Nc2c3c(nn2-c2cccc(Cl)c2)CSC3)c1` [Compound 253-B10, N-[2-(3-Chloro-phenyl)-2,6-dihydro-4H-thieno[3,4-c]pyrazol-3-yl]-3,5-dimethoxy-benzamide] were, in that order, 3 µM, 2 Fold, 2 Fold and >30 µM.
As to `CCOc1ccc(C(=O)Nc2c3c(nn2-c2ccc(OC)cc2)CSC3)cc1OCC` [Compound 253-H8, 3,4-Diethoxy-N-[2-(4-methoxy-phenyl)-2,6-dihydro-4H-thieno[3,4-c]pyrazol-3-yl]-benzamide], in the data set on WNV replicon, inhibition was half-maximal at 10 µM (IC50), the “Fold decrease (HTS)” value stood at 2 Fold and the “Fold decrease (Re-test)” value is listed as 1.5 Fold. Besides, in the data set with BHK 26.5 replicon cells, the “Toxicity (uM)*” value is >30 µM.
As for `CC1CC(C)CN(S(=O)(=O)c2ccc(C3CCCCC3)cc2)C1` (stereo not drawn) [Compound 182-C2, 1-(4-Cyclohexyl-benzenesulfonyl)-3,5-dimethyl-piperidine], in the data set with WNV replicon, the “Fold decrease (HTS)” value was 5 Fold and the “Fold decrease (Re-test)” value is 1.4 Fold. The “Toxicity (uM)*” value in the data set on BHK 26.5 replicon cells was >10 µM.
As for `COc1ccc(-n2nc3c(c2NC(=O)c2ccc4c(c2)OCO4)CSC3)cc1` [Compound 253-G8, Benzo[1,3]dioxole-5-carboxylic acid [2-(4-methoxy-phenyl)-2,6-dihydro-4H-thieno[3,4-c]pyrazol-3-yl]-amide], in the data set on WNV replicon, 2.5 µM corresponded to half-maximal inhibition (IC50), the “Fold decrease (HTS)” value stood at 2 Fold and the “Fold decrease (Re-test)” value is recorded as 2 Fold. Moreover, the “Toxicity (uM)*” value with BHK 26.5 replicon cells was >30 µM.
In the case of `COc1ccc(CCC(=O)Nc2ccc(C(=N)NO)cc2)cc1` [Compound 331-E11, N-[4-(N-Hydroxycarbamimidoyl)-phenyl]-3-(4-methoxy-phenyl)-propionamide], in the data set on WNV replicon, half-maximal inhibition (IC50) required 5 µM, the “Fold decrease (HTS)” value was found to be 3 Fold and the “Fold decrease (Re-test)” value turned out to be 1.5 Fold. In addition, in the data set with BHK 26.5 replicon cells, the “Toxicity (uM)*” value was >30 µM.
The like results for `Cc1cccc(-n2nc3c(c2NC(=O)c2ccc(S(=O)(=O)N4CCCCC4)cc2)CSC3)c1` [Compound 18-H5, 4-(Piperidine-1-sulfonyl)-N-(2-m-tolyl-2,6-dihydro-4H-thieno[3,4-c]pyrazol-3-yl)-benzamide] were, in that order, 7.5 µM, 2 Fold, 2 Fold and >30 µM.
The like results for `Cc1ccc(-n2nc3c(c2NC(=O)C2CC2)CSC3)c(C)c1` [Compound 20-E7, Cyclopropanecarboxylic acid [2-(2,4-dimethyl-phenyl)-2,6-dihydro-4H-thieno[3,4-c]pyrazol-3-yl]-amide] were, in that order, 10 µM, 2.3 Fold, 2.4 Fold and >10 µM.
